Measured values from paper PMC8792425 (Redox Biology, 2022).

Biological target: T1, citrate synthase (CS) (Homo sapiens, UniProt O75390)
T1 sequence (O75390 28-466): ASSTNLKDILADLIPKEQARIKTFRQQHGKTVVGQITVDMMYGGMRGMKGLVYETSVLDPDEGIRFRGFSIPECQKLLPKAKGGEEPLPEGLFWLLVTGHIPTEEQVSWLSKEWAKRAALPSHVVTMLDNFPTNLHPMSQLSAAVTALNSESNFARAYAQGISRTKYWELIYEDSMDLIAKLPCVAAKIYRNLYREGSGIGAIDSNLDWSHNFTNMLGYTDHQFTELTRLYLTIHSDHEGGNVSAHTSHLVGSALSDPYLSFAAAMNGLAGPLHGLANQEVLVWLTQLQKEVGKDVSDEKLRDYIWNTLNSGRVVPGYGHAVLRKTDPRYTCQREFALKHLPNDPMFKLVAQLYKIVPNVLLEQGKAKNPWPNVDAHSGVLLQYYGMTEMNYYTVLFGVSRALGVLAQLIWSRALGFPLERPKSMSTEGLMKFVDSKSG
Test: DTNB-CoA absorbance at […] nm
Type: biochemical

SMILES | DTNB-CoA absorbance at 412 nm (with oxaloacetate and DTNB) | DTNB-CoA absorbance at 412 nm (with acetyl CoA and DTNB)
CC(=O)SCCNC(=O)CCNC(=O)[C@H](O)C(C)(C)COP(=O)(O)OP(=O)(O)OC[C@H]1O[C@@H](n2cnc3c(N)ncnc32)[C@H](O)[C@@H]1OP(=O)(O)O [acetyl CoA] | oxaloacetate, acetyl CoA, and DTNB were incubated with protein lysates | 
O=C(O)CC(=O)C(=O)O [oxaloacetate] |  | oxaloacetate, acetyl CoA, and DTNB were incubated with protein lysates
